In patent publication US20150045433A1, “METHODS AND COMPOSITIONS FOR INDUCING PHYSIOLOGICAL HYPERTROPHY” (THE REGENTS OF THE UNIVERSITY OF COLORADO, A BODY CORPORATE, priority 2009, published 2015):
“Also recorded” adds a separate entry of the source.

Legend:
AQP7 mRNA = AQP7 mRNA expression in neonatal rat cardiomyocytes by qPCR; format: cell-based; settings: for AQP7 mRNA expression: fasted serum (2%) plus individual fatty acid (C14: 10, 33, 100 μM; C16: 33, 100, 300 μM; C16:1: 3, 10, 33 μM), 48 hours
Procedure: Individual fatty acids were complexed to BSA as described by de Vries et al. (1997), which is hereby incorporated by reference. […] An equal volume of Na2CO3 (10 mM) was added and the ethanol was evaporated at 60° C. under continuous N2 flow. The fatty acid mix was added dropwise to 10% BSA. BSA/fatty acid complexes were then dialyzed four times at 4° C. during 4-6 hours in NH4HCO3 (0.1 M). Complexes were then frozen, lyophilized overnight, and resuspended in NRVM rinse media (MEM/PB12/Hepes) for a final concentration of 7 mM. NRVMs were treated with fasted serum, 1 day post-fed serum, or fasted serum+individual fatty acids. […] NRVM gene expression and mean cell diameter were determined after either 24 or 48 hours, respectively.
Dose-dependent effects of individual fatty acids on AQP7 expression. […] Fasted serum (2% final) and fatty acids were diluted in serum-free media (MEM/Hepes/PB12) containing insulin, trnsferrin, BSA, and BrdU. Cells were treated for 48 hours and AQP7 mRNA expression was determined using qPCR with 18S as the normalizing gene.
siRNA studies. Rat AQP7 mRNA sequence was analyzed for potential small interfering RNA (siRNA) target regions using a sequence identification tool (Ambion, Inc., Austin, Tex.). Potential target sequences were transcribed from oligonucleotide templates using the Silencer siRNA Construction kit (Ambion, Inc., Austin, Tex.). To test for the ability of siRNAs to effectively reduce AQP7 expression, NRVMs were transfected with siRNA (100 nM) using Lipofectamine Plus reagent as specified by the manufacturer (Invitrogen, Carlsbad, Calif.). Several rat AQP7-specific siRNA sequences (#1: 5′-[…]-3′ (SEQ ID NO:22); #2: […]-3′ (SEQ ID NO:23); #3 5′-[…]-3′ (SEQ ID NO:24)) were tested for efficacy of gene knockdown using qPCR. […] A nonspecific siRNA (Silencer Negative Control #2; Ambion, Inc., Austin, Tex.) was used as a negative control.

[1] = system: neonatal rat ventricular myocytes (NRVMs); experiment: NRVM cell size / hypertrophy (a-actinin staining, Coulter Counter); format: cell-based
Procedure: Primary culture cardiomyocytes prepared from neonatal rats were treated with fasted and post-fed serum samples. Twenty four hours later the cells were removed from the culturing dish and analyzed for changes in cell size by immunostaining or by automatic analyzer such as Coulter Counter.
In other experiments, neonatal rat cardiac myocytes (NRVMs) were prepared according to the method described in Waspe et al. (1990). In brief, cells were obtained from the hearts of Sprague-Dawley rat pups (1-2 days old) by trypsinization and plated in MEM medium (Hanks' salts) with 5% calf serum. After 48 h in culture, cells were transferred to serum-free medium supplemented with transferring and insulin (each 10 μg/ml). Cells were maintained in 60- or 35-mm culture dishes at a density of 200,000 cells/ml. Contaminating non-muscle cells were kept at <10% by pre-plating and addition of 0.1 mM bromodeoxyuridine to the medium though day 3 of culture.
Before treating the cells, serum samples were thawed and heat inactivated at 58° C. for 30 min. […]
Cardiomyocytes grown on gelatin-coated coverslips were infected with Ad Aqp7 for 48 h. […] Images were captured at a 40x magnification with a fluorescence microscope (Nikon E800) equipped with a digital camera (AxioCam) and Axiovision, version 3.0.6.36 imaging software (Carl Zeiss, Thornwood, NY). The surface areas were measured using NIH image software (Image J) and at least 100 individualized cells were analyzed per each experiment. Cell size was also determined by particle size analyzer, Coulter Counter Multisizer 3 ([…]).
Inhibition of fatty acid transport blocks serum-induced NRVM hypertrophy. […] NRVMs were treated with serum (2%) in the presence and absence of SSO (400 μM) for 48 hours and cell size was determined using a Coulter Counter.
Individual fatty acids were complexed to BSA as described by de Vries et al. (1997), which is hereby incorporated by reference. […] NRVM gene expression and mean cell diameter were determined after either 24 or 48 hours, respectively. […]

[2] = system: fetal gene program (β-myosin heavy chain, ANF, BNP, skeletal actin, SERCA); experiment: Pathologic fetal gene expression in NRVMs by qPCR; format: cell-based, rat; settings: 48 hours
Procedure: FIG. 4. […] Neonatal rat cardiomyocytes were untreated (lightest gray bars) or treated with fasted serum (light gray bars), post-fed serum (black bars) and Phenylephrin (PE; dark gray bars). After 48 hours, RNA was isolated and cDNA was obtained by standard procedures. The expression of several pathologic hypertrophic markers was measured by quantitative real-time PCR including β-myosin heavy chain, atrial natriuretic factor (ANF), brain natriuretic peptide (BNP), skeletal actin and sarcoplasmic reticulum calcium ATPase (SERCA).
Total RNA was extracted by TRizol (Invitrogen). 0.5 μg of RNA was reverse transcribed into cDNA using the SuperScript III first-strand cDNA synthesis kit (Invitrogen). Typically, 0.1 ng of cDNA, 12.5 nM of each primer, and Power SYBER Green PCR Master Mix (Applied Biosystems, Foster City, Calif.) were used in the reverse transcription (RT)-PCR reactions. Reactions were performed using the ABI7300 system. The primers used are presented on Table 1.
Total RNA was extracted from mouse or python ventricle and NRVMs using TRI Reagent (Invitrogen). 0.5 to 2.0 μg of RNA was reverse transcribed into cDNA using the SuperScript III first-strand cDNA synthesis kit (Invitrogen). Quantitative real time PCR reactions were performed using the ABI7300 system (Applied Biosystems, Foster City, Calif., USA) and the Power SYBR Green PCR Master Mix (Applied Biosystems). […]

CCCCCCCCCCCCCC(=O)O [C14, tetradecanoic acid]
Aqp7 mRNA levels (AQP7 mRNA; fasted plasma supplemented with FFAs, relative to 1 DPF plasma): comparable levels observed with 1 DPF plasma
AQP7 mRNA expression (AQP7 mRNA): tended to increase AQP7 mRNA expression in a dose-dependent manner
cell size ([1]; fasted plasma (2%) supplemented with fatty acids at 1 DPF levels (C14 40 μM; C16 137 μM; C16:1 7.5 μM), 48 hours): significant increase in cell size

CCCCCCCCCCCCCCCC(=O)O [C16, hexadecanoid acid]
AQP7 mRNA expression (AQP7 mRNA): tended to increase AQP7 mRNA expression in a dose-dependent manner

CCCCCC/C=C\CCCCCCCC(=O)O [C16:1, (z)-9-hexadecenoic acid]
AQP7 mRNA expression (AQP7 mRNA): tended to increase AQP7 mRNA expression in a dose-dependent manner

CCCCCCCC/C=C\CCCCCCCC(=O)ON1C(=O)CC(S(=O)(=O)O)C1=O (centres unmarked) [SSO, sulfo-N-succinimidyl oleate]
effect on cell growth (hypertrophy) induced by fed serum/plasma ([1]; SSO 400 μM, 2% 1DPF fed serum/plasma): completely blocks the cell growth induced by the fed-serum; also recorded: completely blocked the pro-hypertrophic effect of fed plasma; also recorded: significantly reduced
cell size, no serum (control) ([1]; presence of SSO, no serum): smaller

CNC[C@H](O)c1cccc(O)c1 [phenylephrine]
activation of fetal gene program / pathological gene expression [2]: robust activation of pathological patterns of gene expression
